From US12195506B2, “Immunotherapy with A*01 restricted peptides and combination of peptides against cancers and related methods” (Immatics Biotechnologies GmbH, priority 2018, dated 2025) come the findings set out here.

One assay concerns CD8+ T cells. Description: In vitro T-cell priming assay with artificial antigen presenting cells loaded with peptide/MHC complexes and anti-CD28 antibody, pMHC multimer readout. Particulars: Table 10b; in vitro immunogenicity, peptide-specific multimer+ CD8+ T cells. Type of assay: cell-based, human. The source says:
In order to obtain information regarding the immunogenicity of the TUMAPs of the present invention, the inventors performed investigations using an in vitro T-cell priming assay based on repeated stimulations of CD8+ T cells with artificial antigen presenting cells (aAPCs) loaded with peptide/MHC complexes and anti-CD28 antibody.
In order to perform in vitro stimulations by artificial antigen presenting cells loaded with peptide-MHC complex (pMHC) and anti-CD28 antibody, the inventors first isolated CD8+ T cells from fresh HLA-A*02 leukapheresis products via positive selection using CD8 microbeads (Miltenyi Biotec, Bergisch-Gladbach, Germany) of healthy donors obtained from the University clinics Mannheim, Germany, after informed consent.
PBMCs and isolated CD8+ lymphocytes were incubated in T-cell medium (TCM) until use consisting of RPMI-Glutamax (Invitrogen, Karlsruhe, Germany) supplemented with 10% heat inactivated human AB serum (PAN-Biotech, Aidenbach, Germany), 100 U/ml Penicillin/100 μg/ml Streptomycin (Cambrex, Cologne, Germany), 1 mM sodium pyruvate (CC Pro, Oberdorla, Germany), 20 μg/ml Gentamycin (Cambrex). 2.5 ng/ml IL-7 (PromoCell, Heidelberg, Germany) and 10 U/ml IL-2 (Novartis Pharma, Nurnberg, Germany) were also added to the TCM at this step.
Generation of pMHC/anti-CD28 coated beads, T-cell stimulations and readout was performed in a highly defined in vitro system using four different pMHC molecules per stimulation condition and 8 different pMHC molecules per readout condition.
The purified co-stimulatory mouse IgG2a anti human CD28 Ab 9.3 (Jung et al., 1987) was chemically biotinylated using Sulfo-N-hydroxysuccinimidobiotin as recommended by the manufacturer (Perbio, Bonn, Germany). Beads used were 5.6 μm diameter streptavidin coated polystyrene particles (Bangs Laboratories, Illinois, USA).
pMHC used for positive and negative control stimulations were A*0201/MLA-001 (peptide […] (SEQ ID NO. 433) from modified Melan-A/MART-1) and A*0201/DDX5-001 ([…] from DDX5, SEQ ID NO. 434), respectively.
800.000 beads/200 μI were coated in 96-well plates in the presence of 4×12.5 ng different biotin-pMHC, washed and 600 ng biotin anti-CD28 were added subsequently in a volume of 200 μI. Stimulations were initiated in 96-well plates by co-incubating 1×10^6 CD8+ T cells with 2×10^5 washed coated beads in 200 μI TCM supplemented with 5 ng/ml IL-12 (PromoCell) for 3 days at 37° C. Half of the medium was then exchanged by fresh TCM supplemented with 80 U/ml IL-2 and incubating was continued for 4 days at 37° C. This stimulation cycle was performed for a total of three times. For the pMHC multimer readout using 8 different pMHC molecules per condition, a two-dimensional combinatorial coding approach was used as previously described (Andersen et al., 2012) with minor modifications encompassing coupling to 5 different fluorochromes. Finally, multimeric analyses were performed by staining the cells with Live/dead near IR dye (Invitrogen, Karlsruhe, Germany), CD8-FITC antibody clone SK1 (BD, Heidelberg, Germany) and fluorescent pMHC multimers. For analysis, a BD LSRII SORP cytometer equipped with appropriate lasers and filters was used. Peptide specific cells were calculated as percentage of total CD8+ cells. Evaluation of multimeric analysis was done using the FlowJo software (Tree Star, Oregon, USA). In vitro priming of specific multimer+CD8+ lymphocytes was detected by comparing to negative control stimulations.

Another assay addresses HLA-A*01:01 (Homo sapiens, UniProt P04439, A114D/A174V/A182V/D101N/D185E/E176A/E190D/L180R/Q94H/R68K/S129P/T187R/V100A/V91M/W191G). In words: MHC binding assay: UV-ligand exchange, ELISA of stabilized MHC complexes (peptide exchange yield). The following applies: binding to HLA-A*01:01, UV-ligand exchange. In a few lines: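 Peptide–MHC complexes were formed by UV-induced exchange of a photocleavable ligand for the test peptide. Exchange yield was measured by streptavidin-capture ELISA of 100-fold diluted complexes, detected with HRP anti-β2m at A450. Refolded HLA-A*02:01/MLA-001 monomers at 15-500 ng/ml served as standards.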

“37 (MTSTEQSLYY; listed as Homo sapiens) [compound 37]”: the “Wells positive [%]” value with CD8+ T cells was “+ (<20% = +)”. Also, in the assay with HLA-A*01:01, the Peptide exchange result was “+++ (>50 = +++)”.
The like results for “42 (ASDVDTLLK; listed as Homo sapiens) [compound 42]” were, in that order, “+ (<20% = +)” and “+++ (>50 = +++)”.
The like results for “53 (YLEDRPLSQLY; listed as Homo sapiens) [compound 53]” were, in that order, “+ (<20% = +)” and “++++ (>75% = ++++)”.
The like results for “54 (EVDIHTIHY; listed as Homo sapiens) [compound 54]” were, in that order, “+ (<20% = +)” and “+++ (>50 = +++)”.
In the case of “60 (MTEKFLFLY; listed as Homo sapiens) [compound 60]”, the “Wells positive [%]” value with CD8+ T cells was “+ (<20% = +)”. For the same substance, the Peptide exchange result with HLA-A*01:01 is recorded as “++++ (>75% = ++++)”.
The like results for “61 (SSDIVALGGFLY; listed as Homo sapiens) [compound 61]” were, in that order, “++ (20%-49% = ++)” and “+++ (>50 = +++)”.
Consider “64 (TSEISQNALMYY; listed as Homo sapiens) [compound 64]”, for which the “Wells positive [%]” value in the assay on CD8+ T cells was “+ (<20% = +)”. For the same substance, the Peptide exchange result in the assay with HLA-A*01:01 is “+++ (>50 = +++)”.
The like results for “70 (YTELVEEKY; listed as Homo sapiens) [compound 70]” were, in that order, “+ (<20% = +)” and “+++ (>50 = +++)”.
The corresponding values for “71 (LTDSTTRTTY; listed as Homo sapiens) [compound 71]” are “+ (<20% = +)” and “+++ (>50 = +++)”.
The like results for “73 (STDSASYY; listed as Homo sapiens) [compound 73]” were, in that order, “+ (<20% = +)” and “++++ (>75% = ++++)”.
Take “75 (FTDYELKAY; listed as Homo sapiens) [compound 75]”: in the assay with CD8+ T cells, the “Wells positive [%]” value was “+ (<20% = +)”. Besides, the Peptide exchange entry in the assay with HLA-A*01:01 was “++++ (>75% = ++++)”.
As to “77 (FTSDTGLEY; listed as Homo sapiens) [compound 77]”, in the assay with CD8+ T cells, the “Wells positive [%]” value is given as “+++ (50%-69% = +++)”. Also, in the assay with HLA-A*01:01, the Peptide exchange result is “++++ (>75% = ++++)”.
The corresponding values for “79 (ASDLEPRELLSY; listed as Homo sapiens) [compound 79]” are “+ (<20% = +)” and “+++ (>50 = +++)”.
The corresponding values for “81 (YSDLHTPGRY; listed as Homo sapiens) [compound 81]” are “+ (<20% = +)” and “+++ (>50 = +++)”.
The like results for “82 (LTEKSHIRY; listed as Homo sapiens) [compound 82]” were, in that order, “+ (<20% = +)” and “+++ (>50 = +++)”.
“83 (DTEFHGGLHY; listed as Homo sapiens) [compound 83]”: the “Wells positive [%]” value in the assay on CD8+ T cells is on record as “+ (<20% = +)”. Further, the Peptide exchange entry with HLA-A*01:01 is given as “+++ (>50 = +++)”.
The corresponding values for “84 (ESEMIKFASYY; listed as Homo sapiens) [compound 84]” are “+ (<20% = +)” and “++++ (>75% = ++++)”.
The like results for “386 (NSALNPLLY; listed as Homo sapiens) [compound 386]” were, in that order, “+ (<20% = +)” and “++++ (>75% = ++++)”.
Turning to “387 (LMEKEDYHSLY; listed as Homo sapiens) [compound 387]”, in the assay with CD8+ T cells, the “Wells positive [%]” value is listed as “+ (<20% = +)”. Moreover, the Peptide exchange result in the assay with HLA-A*01:01 is “+++ (>50 = +++)”.
